Data as given in US6534491B2, “Preparation and use of ortho-sulfonamido bicyclic heteroaryl hydroxamic acids as matrix metalloproteinase and tace inhibitors” (priority 1996, dated 2003).
Counter-ions that a name gives are not always drawn. Like-named read-outs stand apart in the source and are kept apart here.

Key:
MMP-13 [1] = target: T1, MMP-13 (Homo sapiens, UniProt P45452); experiment: In vivo MMP inhibition test procedure (implanted dialysis tubing containing enzyme); parameters: species or system rat or mouse; conditions: p.o. vs MMP-13
Method: A 2 cm piece of dialysis tubing (molecular weight cut-off 12-14,000, 10 mm flat width) containing matrix metalloproteinase enzyme (stromelysin, collagenase or gelatinase in 0.5 mL of buffer) is implanted either ip or sc (in the back) of a rat (Sprague-Dawley, 150-200 g) or mouse (CD-1, 25-50 g) under anesthesia. Drugs are administered PO, IP, SC or IV through a canula in the jugular vein. […] Contents of the dialysis tubing is collected and enzyme activity assayed.
Enzyme reaction rates for each dialysis tube are calculated. Tubes from at least 3 different animals are used to calculate the mean±sem. Statistical significance (p<0.05) of vehicle-treated animals versus drug-treated animals is determined by analysis of variance.

MMP-13 [2] = target: T1, MMP-13; experiment: MMP-13 inhibition (thiopeptide or fluorescent peptide substrate); type: biochemical
Method: (§1) The enzyme activity is measured by the rate of the color increase. The thiopeptide substrate is made up fresh as a 20 mM stock in 100% DMSO and the DTNB is dissolved in 100% DMSO as a 100 mM stock and stored in the dark at room temperature. Both the substrate and DTNB are diluted together to 1 mM with substrate buffer (50 mM HEPES pH 7.5, 5 mM CaCl2) before use. The stock of enzyme is diluted with buffer (50 mM HEPES, pH 7.5, 5 mM CaCl2, 0.02% Brij) to the desired final concentration.
(§2) Alternatively, a fluorescent peptide substrate is used. In this test procedure, the peptide substrate contains a fluorescent group and a quenching group. Upon cleavage of the substrate by an MMP, the fluorescence that is generated is quantitated on the fluorescence plate reader. The assay is run in HCBC assay buffer (50 mM HEPES, pH 7.0, 5 mM Ca^+2, 0.02% Brij, 0.5% Cysteine), with human recombinant MMP-1, MMP-9, or MMP-13. The substrate is dissolved in methanol and stored frozen in 1 mM aliquots. For the assay, substrate and enzymes are diluted in HCBC buffer to the desired concentrations. Compounds are added to the 96 well plate containing enzyme and the reaction is started by the addition of substrate.
(§3) For either the thiopeptide or fluorescent peptide test procedures, the slope of the line is calculated and represents the reaction rate. The linearity of the reaction rate is confirmed (r^2>0.85). The mean (x±sem) of the control rate is calculated and compared for statistical significance (p<0.05) with drug-treated rates using Dunnett's multiple comparison test.

TACE = TACE (Homo sapiens, UniProt P78536); experiment: TACE inhibition (fluorescent peptidyl substrate); type: biochemical; conditions: for inhibition at 1 µM: at 1 μM concentration, read-out: TACE % inhibition
Chain of TACE (P78536 215-824): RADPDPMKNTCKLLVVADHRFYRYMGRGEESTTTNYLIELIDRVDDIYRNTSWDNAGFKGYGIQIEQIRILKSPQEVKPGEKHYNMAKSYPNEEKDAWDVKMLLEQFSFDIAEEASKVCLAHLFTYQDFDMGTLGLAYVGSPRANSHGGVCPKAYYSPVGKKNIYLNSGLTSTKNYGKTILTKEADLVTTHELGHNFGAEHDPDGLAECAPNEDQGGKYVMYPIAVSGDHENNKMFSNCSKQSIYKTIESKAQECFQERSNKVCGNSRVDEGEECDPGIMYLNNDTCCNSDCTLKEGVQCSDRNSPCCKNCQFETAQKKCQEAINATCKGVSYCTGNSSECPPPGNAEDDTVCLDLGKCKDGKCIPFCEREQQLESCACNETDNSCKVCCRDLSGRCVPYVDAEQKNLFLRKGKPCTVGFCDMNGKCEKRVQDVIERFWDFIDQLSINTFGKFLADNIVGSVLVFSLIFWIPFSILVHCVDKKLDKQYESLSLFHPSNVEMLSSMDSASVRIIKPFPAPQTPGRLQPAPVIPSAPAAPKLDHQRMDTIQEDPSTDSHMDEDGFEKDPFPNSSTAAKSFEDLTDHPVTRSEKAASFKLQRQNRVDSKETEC
Method: Using 96-well black microtiter plates, each well receives a solution composed of 10 μL TACE (final concentration 1 μg/mL), 70 μL Tris buffer, pH 7.4 containing 10% glycerol (final concentration 10 mM), and 10 μL of test compound solution in DMSO (final concentration 1 μl M, DMSO concentration <1%) and incubated for 10 minutes at room temperature.
The reaction is read (excitation 340 nm, emission 420 nm) for 10 min. and the increase in fluorescence over time is plotted as a linear line. The slope of the line is calculated and represents the reaction rate.
The linearity of the reaction rate is confirmed (r^2>0.85). The mean (x±sem) of the control rate is calculated and compared for statistical significance (p<0.05) with drug-treated rates using Dunnett's multiple comparison test.

MMP-9 = MMP-9 (Homo sapiens, UniProt P14780); experiment: MMP-9 inhibition (thiopeptide or fluorescent peptide substrate); type: biochemical; conditions: for IC50: read-out: MMP-9 IC50
Chain of MMP-9 (P14780 94-707): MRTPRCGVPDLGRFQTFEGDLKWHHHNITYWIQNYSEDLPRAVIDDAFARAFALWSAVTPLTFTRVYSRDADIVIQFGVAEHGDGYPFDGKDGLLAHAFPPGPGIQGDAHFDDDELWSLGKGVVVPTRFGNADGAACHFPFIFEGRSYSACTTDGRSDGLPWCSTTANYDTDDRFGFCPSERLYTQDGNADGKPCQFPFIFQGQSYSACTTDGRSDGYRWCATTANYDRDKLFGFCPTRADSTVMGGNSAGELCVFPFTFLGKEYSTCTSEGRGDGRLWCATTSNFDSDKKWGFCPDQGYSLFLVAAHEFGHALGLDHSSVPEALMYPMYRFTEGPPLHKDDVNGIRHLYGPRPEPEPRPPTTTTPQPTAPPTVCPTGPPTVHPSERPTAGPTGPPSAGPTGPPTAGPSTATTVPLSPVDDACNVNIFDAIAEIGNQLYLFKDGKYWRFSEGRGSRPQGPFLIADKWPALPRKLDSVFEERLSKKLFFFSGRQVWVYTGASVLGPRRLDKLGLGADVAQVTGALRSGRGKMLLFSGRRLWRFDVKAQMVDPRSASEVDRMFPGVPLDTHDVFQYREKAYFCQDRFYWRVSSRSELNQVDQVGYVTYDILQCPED
Method: as §1, §2, §3

MMP-1 [3] = target: T2, MMP-1 (Homo sapiens, UniProt P03956); conditions: read-out: MMP-1 IC50
T2 sequence (P03956 100-469): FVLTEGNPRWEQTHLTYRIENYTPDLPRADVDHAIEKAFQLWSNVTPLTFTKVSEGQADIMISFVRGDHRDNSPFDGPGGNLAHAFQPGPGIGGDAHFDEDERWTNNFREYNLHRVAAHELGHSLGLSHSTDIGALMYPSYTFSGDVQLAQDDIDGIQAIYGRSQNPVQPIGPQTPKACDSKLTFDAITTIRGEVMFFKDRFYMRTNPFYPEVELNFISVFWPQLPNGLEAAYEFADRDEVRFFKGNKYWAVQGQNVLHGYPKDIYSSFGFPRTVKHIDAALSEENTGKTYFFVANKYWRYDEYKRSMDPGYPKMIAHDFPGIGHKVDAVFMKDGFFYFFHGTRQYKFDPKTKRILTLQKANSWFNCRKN

MMP-1 [4] = target: T2, MMP-1; experiment: biochemical; conditions: for IC50: MMP-1 IC50

Molecule	IC50 (MMP-13 [2]) [nM]	IC50 (MMP-9) [nM]	IC50 (TACE) [nM]	melting point	other results
COc1ccc(S(=O)(=O)N(Cc2cccnc2)c2c(C(=O)NO)cnc3cc(C(F)(F)F)ccc23)cc1 [Example 16, 4-[(4-Methoxybenzenesulfonyl)-pyridin-3-ylmethylamino]-7-trifluoromethyl-quinoline-3-carboxylic acid hydroxyamide]	3	6			in-vivo MMP % inhibition (MMP-13 [1]; dose 100 mg/kg): 64% (100); inhibition at 1 µM (TACE): 36%
4-[(4-Methoxy-benzenesulfonyl)-pyridin-3-ylmethyl-amino]-8-thiophen-2-yl-quinoline-3-carboxylic acid hydroxyamide [Example 41]					IC50 (MMP-1 [3]): 136 nM
CN(c1c(C(=O)NO)cnc2c1c(-c1ccccc1)nn2C)S(=O)(=O)c1ccc(Oc2ccncc2)cc1 [Example 93, 4-{Methyl-[4-(4-pyridinyloxy)benzenesulfonyl]amino}-1-methyl-3-phenyl-1H-pyrazolo[3,4-b]pyridine-5-carboxylic acid, Hydroxyamide]	3.9	10.1			IC50 (MMP-1 [4]): 8790 nM; in-vivo MMP % inhibition (MMP-13 [1]; dose 25 mg/kg): 49% (25); inhibition at 1 µM (TACE): 34.9%
Cc1nsc2ncc(C(=O)NO)c(N(C)S(=O)(=O)c3ccc(Oc4ccncc4)cc3)c12 [Example 92, 4-{Methyl-[4-(4-pyridinyloxy)benzenesulfonyl]amino}-3-methylisothiazolo[5,4-b]pyridine-5-carboxylic Acid, Hydroxyamide]	6.1	12	> 1640	146 °C (dec.)	inhibition at 10 µM (MMP-1 [4]; read-out: MMP-1 % inhibition): 60.2%; in-vivo MMP % inhibition (MMP-13 [1]; dose 25 mg/kg): 30% (25)
4-{[4-(4-Chlorophenyloxy)benzenesulfonyl]methylamino}-1,3-dimethyl-1H-pyrazolo[3,4-b]pyridine-5-carboxylic Acid, Hydroxyamide [Example 89]		0.8	356 ± 15		in-vivo MMP % inhibition (MMP-13 [1]; dose 25 mg/kg): 6% (25); IC50 (MMP-1 [3]): 116 nM
COc1ccc(S(=O)(=O)N(Cc2cccnc2)c2c(C(=O)NO)cnc3cc(C)nn23)cc1 (as salt: salt) [Example 88, 7-[(4-Methoxybenzenesulfonyl)pyridin-3-ylmethylamino]-2-methylpyrazolo[1,5-a]pyrimidine-6-carboxylic Acid, Hydroxyamide]				170 °C (dec.)	
CN(c1c(C(=O)NO)cnc2c1c(-c1ccccc1)nn2C)S(=O)(=O)c1ccc(Oc2ccncc2)cc1 (as salt: hydrochloride) [Example 93, 4-{Methyl-[4-(4-pyridinyloxy)benzenesulfonyl]amino}-1-methyl-3-phenyl-1H-pyrazolo[3,4-b]pyridine-5-carboxylic acid, Hydroxyamide]				195 °C (dec.)	
COc1ccc(S(=O)(=O)N(Cc2cccnc2)c2c(C(=O)NO)cnc3c2c(C)nn3C)cc1 [Example 60, 4-[(4-Methoxybenzenesulfonyl)pyridin-3-ylmethylamino]-1,3-dimethyl-1H-pyrazolo[3,4-b]pyridine-5-carboxylic acid, hydroxyamide]				196 to 198 °C	
COc1ccc(S(=O)(=O)N(Cc2cccnc2)c2c(C(=O)NO)cnc3c(OC)cccc23)cc1 [Example 36, 4-[(4-Methoxy-benzenesulfonyl)-pyridin-3-ylmethyl-amino]-8-methoxy-quinoline-3-carboxylic acid hydroxyamide]	1	2	226		in-vivo MMP % inhibition (MMP-13 [1]; dose 50 mg/kg): 81% (50)
COc1ccc(S(=O)(=O)N(Cc2cccnc2)c2c(C(=O)NO)cnc3snc(C)c23)cc1 (as salt: salt) [Example 86, 4-[(4-Methoxybenzenesulfonyl)pyridin-3-ylmethylamino]-3-methylisothiazolo[5,4-b]pyridine-5-carboxylic Acid, Hydroxyamide]				224 °C (dec.)	
Cc1noc2ncc(C(=O)NO)c(N(C)S(=O)(=O)c3ccc(Oc4ccncc4)cc3)c12 (as salt: hydrochloride) [Example 94, 4-{Methyl-[4-(4-pyridinyloxy)benzenesulfonyl]amino}-3-methylisoxazolo[5,4-b]pyridine-5-carboxylic acid, Hydroxyamide,]				170 °C (dec.)	
4-[Methyl-(4-methoxy-benzenesulfonyl)-amino]-6-phenylethyl-quinoline-3-carboxylic acid hydroxyamide [Example 35]			49		IC50 (MMP-1 [3]): 234 nM
4-{Methyl-(4-(pyridin-4-yloxy)-benzenesulfonyl]-amino}-6-iodo-quinoline-3-carboxylic acid hydroxyamide hydrochloride [Example 33]					IC50 (MMP-1 [3]): 1010 nM
COc1ccc(S(=O)(=O)N(Cc2ccccc2)c2c(C(=O)NO)cnc3c(C(F)(F)F)cccc23)cc1 [Example 12, 4-[Benzyl-(4-methoxy-benzenesulfonyl)-amino]-8-trifluoromethyl-quinoline-3-carboxylic acid hydroxyamide]	1	2	190		IC50 (MMP-1 [4]): 933 nM
Cc1nn(C)c2ncc(C(=O)NO)c(N(C)S(=O)(=O)c3ccc(Oc4ccncc4)cc3)c12 (as salt: hydrochloride) [91(HC1), 4-{Methyl-[4-(4-pyridinyloxy)benzenesulfonyl]amino}-1,3-dimethyl-1H-pyrazolo[3,4-b]pyridine-5-carboxylic Acid, Hydroxyamide]				147 °C (dec.)	
COc1ccc(S(=O)(=O)N(Cc2ccccc2)c2c(C(=O)NO)cnc3c2c(C)nn3C)cc1 [Example 52, 4-[Benzyl-(4-methoxybenzenesulfonyl)amino]-1,3-dimethyl-1H-pyrazolo[3,4-b]pyridine-5-carboxylic acid, hydroxyamide]	1.4	2.4	236		IC50 (MMP-1 [4]): 45 nM; in-vivo MMP % inhibition (MMP-13 [1]; dose 100 mg/kg): 74% (100)
COc1ccc(S(=O)(=O)N(Cc2ccccc2)c2c(C(=O)NO)cnc3c2c(C)nn3-c2ccccc2)cc1 [Example 66, 4-[Benzyl-(4-methoxybenzenesulfonyl)amino]-1-phenyl-3-methyl-1H-pyrazolo[3,4b]pyridine-5-carboxylic acid, hydroxyamide]	0.27	0.81			IC50 (MMP-1 [4]): 512 nM; in-vivo MMP % inhibition (MMP-13 [1]; dose 25 mg/kg): 5% (25)
4-{[4-(4-Chlorophenyloxy)benzenesulfonyl]methylamino}-3-methylisothiazolo[5,4-b]pyridine-5-carboxylic Acid Hydroxyamide [Example 90]					in-vivo MMP % inhibition (MMP-13 [1]; dose 25 mg/kg): 39% (25)
Cc1noc2ncc(C(=O)NO)c(N(C)S(=O)(=O)c3ccc(Oc4ccncc4)cc3)c12 [Example 94, 4-{Methyl-[4-(4-pyridinyloxy)benzenesulfonyl]amino}-3-methylisoxazolo[5,4-b]pyridine-5-carboxylic acid, Hydroxyamide,]	3.2	3			IC50 (MMP-1 [4]): 2550 nM; in-vivo MMP % inhibition (MMP-13 [1]; dose 25 mg/kg): 12% (25); inhibition at 1 µM (TACE): 41.6%
CCCCCCCCS(=O)(=O)N(Cc1cccnc1)c1c(C(=O)NO)cnc2cc(C(F)(F)F)ccc12 [Example 43, 4-[(Octane-1-sulfonyl)-pyridin-3-ylmethyl-amino]-7-trifluoromethyl-quinoline-3-carboxylic acid hydroxyamide]					inhibition at 1 µM (MMP-1 [4]; read-out: MMP-1 % inhibition): 43%; inhibition at 1 µM (MMP-13 [2]; read-out: MMP-13 % inhibition, at 1 μM concentration): 63%; inhibition at 1 µM (TACE): 20%; inhibition at 1 µM (MMP-9; read-out: MMP-9 % inhibition, at 1 μM concentration): 71%
COc1ccc(S(=O)(=O)N(Cc2cccnc2)c2c(C(=O)NO)cnc3onc(C)c23)cc1 (as salt: salt) [Example 87, 4-[(4-Methoxybenzenesulfonyl)pyridin-3-ylmethylamino]-3-methylisoxazolo[5,4-b]pyridine-5-carboxylic Acid, Hydroxyamide]				212 to 215 °C	
COc1ccc(S(=O)(=O)N(Cc2cccnc2)c2c(C(=O)NO)cnc3onc(C)c23)cc1 [Example 87, 4-[(4-Methoxybenzenesulfonyl)pyridin-3-ylmethylamino]-3-methylisoxazolo[5,4-b]pyridine-5-carboxylic Acid, Hydroxyamide]	10	8.9	147 ± 5		IC50 (MMP-1 [4]): 111 nM
